Laboratory results taken from patent US4344949A, “Substituted acyl derivatives of 1,2,3,4-tetrahydroisoquinoline-3-carboxylic acids” (Warner-Lambert Company, priority 1981, dated 1982).
Where a name gives a salt, the structure may show the parent alone.

Each compound was assayed against T1, guinea pig serum ACE (angiotensin converting enzyme) (Cavia porcellus, UniProt H0UWL7) (assay: In vitro ACE assay (angiotensin converting enzyme inhibitory activity, guinea pig serum ACE, 3H-hippuryl-glycyl-glycine substrate)). Conditions: 10 min preincubation, 60 min incubation at 37° C., S,S,S configuration, hydrochloride salt (+) or maleate salt (#) by footnote, read-out: ACE I Activity (in vitro) IC50 Molar Conc.
T1 construct: ACE from guinea pig serum; from tissue; host or cells: guinea pig serum
T1 sequence (H0UWL7 33-1302): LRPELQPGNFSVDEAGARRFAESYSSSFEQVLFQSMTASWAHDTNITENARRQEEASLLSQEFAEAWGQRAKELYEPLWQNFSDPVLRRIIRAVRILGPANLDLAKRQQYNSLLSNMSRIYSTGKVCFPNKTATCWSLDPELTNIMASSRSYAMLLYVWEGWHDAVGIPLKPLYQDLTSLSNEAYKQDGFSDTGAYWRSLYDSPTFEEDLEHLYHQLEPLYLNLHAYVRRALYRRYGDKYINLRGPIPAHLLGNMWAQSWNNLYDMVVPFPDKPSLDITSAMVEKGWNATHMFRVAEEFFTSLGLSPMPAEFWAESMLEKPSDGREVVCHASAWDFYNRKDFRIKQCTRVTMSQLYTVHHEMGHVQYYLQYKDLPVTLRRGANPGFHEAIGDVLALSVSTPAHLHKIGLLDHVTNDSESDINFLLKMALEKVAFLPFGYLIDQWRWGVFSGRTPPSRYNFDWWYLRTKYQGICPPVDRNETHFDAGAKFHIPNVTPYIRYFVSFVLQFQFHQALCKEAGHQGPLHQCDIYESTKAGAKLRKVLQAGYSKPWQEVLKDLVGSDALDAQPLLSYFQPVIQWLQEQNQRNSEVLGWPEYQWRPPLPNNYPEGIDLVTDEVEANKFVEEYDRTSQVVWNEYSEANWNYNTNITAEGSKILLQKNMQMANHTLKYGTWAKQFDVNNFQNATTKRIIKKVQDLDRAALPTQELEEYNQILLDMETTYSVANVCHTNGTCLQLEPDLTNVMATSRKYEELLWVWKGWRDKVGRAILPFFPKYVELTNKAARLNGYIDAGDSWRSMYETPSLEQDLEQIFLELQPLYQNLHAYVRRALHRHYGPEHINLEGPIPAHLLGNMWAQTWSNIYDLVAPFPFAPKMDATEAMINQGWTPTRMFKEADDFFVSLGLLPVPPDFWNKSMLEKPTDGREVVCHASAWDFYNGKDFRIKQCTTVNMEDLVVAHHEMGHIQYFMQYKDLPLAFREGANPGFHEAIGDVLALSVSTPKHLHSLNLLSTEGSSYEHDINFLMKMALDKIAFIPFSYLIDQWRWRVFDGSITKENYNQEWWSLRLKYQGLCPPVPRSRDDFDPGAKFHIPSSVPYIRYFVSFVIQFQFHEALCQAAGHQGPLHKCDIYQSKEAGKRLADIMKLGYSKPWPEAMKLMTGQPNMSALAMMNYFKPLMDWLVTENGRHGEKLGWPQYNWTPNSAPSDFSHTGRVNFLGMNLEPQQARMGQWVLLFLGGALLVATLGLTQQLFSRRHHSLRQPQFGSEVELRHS
Assay type: biochemical
Procedure: In vitro ACE Assay: Angiotensin converting enzyme (ACE) inhibitory activity was determined by assaying guinea pig serum ACE in the presence and absence of the test compound. ACE from guinea pig serum and the test compounds were preincubated for 10 minutes before the addition of the labelled substrate ^3 H-hippuryl-glycyl-glycine. After a 60 minute incubation of 37° C. the reaction was stopped by the addition of 0.1 N HCl. ACE cleaves the hippuryl-glycyl bond to form the dipeptide glycyl-glycine and ^3 H-hippuric acid. The ^3 H-hippuric acid was then extracted with ethyl acetate and the ACE activity of a given sample calculated as the amount of ^3 H-hippuric acid generated.

Row | Compound | IC50
1 | CCOC(=O)[C@H](CCc1ccccc1)N[C@@H](C)C(=O)N1Cc2ccccc2C[C@H]1C(=O)OC(C)(C)C [R=t-Bu, R2=Et, X=H, Y=H] | 3200 nM
2 | CCOC(=O)[C@H](CCc1ccccc1)N[C@@H](C)C(=O)N1Cc2cc(OC)c(OC)cc2C[C@H]1C(=O)OCc1ccccc1 [R=PhCH2, R2=Et, X=OCH3, Y=OCH3, 2-[2-[[1-(Ethoxycarbonyl)-3-phenylpropyl]amino]-1-oxopropyl]-1,2,3,4-tetrahydro-6,7-dimethoxy-3-isoquinolinecarboxylic Acid, Phenylmethyl Ester, Maleate (S,S,S)] | 300 nM
3 | CCOC(=O)[C@H](CCc1ccccc1)N[C@@H](C)C(=O)N1Cc2cc(OC)c(OC)cc2C[C@H]1C(=O)O [R=H, R2=Et, X=OCH3, Y=OCH3, 2-[2-[[1-(Ethoxycarbonyl)-3-phenylpropyl]amino]-1-oxopropyl]-1,2,3,4-tetrahydro-6,7-dimethoxy-3-isoquinolinecarboxylic Acid, Hydrochloride, Hydrate (S,S,S)] | 5.6 nM
4 | CCOC(=O)[C@H](CCc1ccccc1)N[C@@H](C)C(=O)N1Cc2ccccc2C[C@H]1C(=O)OCc1ccccc1 [R=PhCH2, R2=Et, X=H, Y=H, 2-[2-[[1-(Ethoxycarbonyl)-3-phenylpropyl]amino]-1-oxopropyl]-1,2,3,4-tetrahydro-3-isoquinolinecarboxylic Acid, Phenylmethyl Ester, Maleate (S,S,S)] | 2000 nM
